The results in this text go back to ChEMBL document CHEMBL1149983, “Probing the S-1 subsite selectivity of an industrial alkaline protease in anhydrous t-butanol” (Bioorg Med Chem Lett, 1993).

Structures are written as SMILES. Peptide text beside a SMILES is read from it. * marks the point of attachment. Cbz = O=C(OCc1ccccc1)*

This experiment in a line: Reaction time taken for industrial alkaline protease catalyzed synthesis using CBz-Phe-OCP as acyl donor and Gly-NH2 as nucleophile.

In turn, `CC(C)C[C@@H](NC(=O)[C@H](Cc1ccccc1)NC(=O)OCc1ccccc1)C(N)=O` registered a Reaction time of 1.5 h.

As to `CC(C)C[C@H](NC(=O)CNC(=O)[C@H](Cc1ccccc1)NC(=O)OCc1ccccc1)C(N)=O` (Cbz-Phe-Gly-Leu-NH2), the Reaction time amounted to 1 h.

In turn, `CCCOC(=O)[C@@H](C)NC(=O)[C@H](CC(=O)OCc1ccccc1)NC(=O)OCc1ccccc1` yielded a Reaction time of 2 h.

Compound `NC(=O)[C@@H](Cc1ccccc1)NC(=O)[C@H](Cc1ccccc1)NC(=O)OCc1ccccc1` showed a Reaction time of 2 h.

Consider `CC(C)C[C@H](NC(=O)[C@H](Cc1ccccc1)NC(=O)OCc1ccccc1)C(N)=O`, for which the Reaction time came out at 1 h.

In turn, `NC(=O)CNC(=O)CNC(=O)[C@H](Cc1ccccc1)NC(=O)OCc1ccccc1` (Cbz-Phe-Gly-Gly-NH2) had a Reaction time of 1.5 h.

Compound `NC(=O)CNC(=O)[C@H](Cc1ccccc1)NC(=O)OCc1ccccc1` (Cbz-Phe-Gly-NH2) came in with a Reaction time of 1 h.

With `NC(=O)[C@H](Cc1ccccc1)NC(=O)[C@H](Cc1ccccc1)NC(=O)OCc1ccccc1`, the Reaction time was 1 h.

Compound `NC(=O)[C@H](Cc1ccccc1)NC(=O)CNC(=O)[C@H](Cc1ccccc1)NC(=O)OCc1ccccc1` (Cbz-Phe-Gly-Phe-NH2) had a Reaction time of 1 h.
